Results: article PMC12799587, “Predicting compounds that interact with the 2 known agonist-induced conformations of the human β1-adrenoceptor” (Molecular Pharmacology, 2025)
“And” between values parts separate entries of the source, which are not always exact repeats. Identical values can stand only once.

How the values were obtained:
[1] = target: T1, β1-AR (Homo sapiens, UniProt P08588); assay: CRE-luciferase production in CHO-β1-CRE-luciferase cells; settings: for % isop: response compared to 10 μM isoprenaline; for Log EC50: agonist action; for Log ratio of affinities: catecholamine vs secondary conformation; for Log KD Secondary Conformation, CGP12177 as agonist: rightward shift of CGP12177 response
[2] = target: T1, β1-AR; assay: Summary of pharmacological outcome at the β1-AR (CHO-β1-luciferase or CHO-β1-SPAP cells); settings: for Pharmacological Outcome: CCE/IBS conformation / Pharmacological Outcome: SCE conformation: β1-AR, summary; for Evidence of SCE activation: evidence A–D as outlined in the Introduction, CHO-β1-luciferase or CHO-β1-SPAP cells
[3] = target: T1, β1-AR; assay: CRE-SPAP production in CHO-β1-CRE-SPAP cells; type: cell-based; set-up: expressed in transfected cells; host or cells: CHO-K1 clonal lines (CHO-β1-CRE-luc, CHO-β1-CRE-SPAP); settings: for % Isoprenaline: response compared with 10 μM isoprenaline; for EC50 / Log EC50: agonist action; for EC50: read-out: Log EC50 (converted)
Procedure: (§1) Many agonist responses were best described by a one-site sigmoidal agonist concentration-response curve.
(§2) In experiments where 3 different fixed concentrations of the same antagonist were used, Schild plots were constructed using equation (6):(6) logDR-1=logB-logKD
(§3) These points were then fitted to a straight line. A slope of 1 then indicates competitive antagonism.[39]
(§4) Where clear partial agonism was present (eg, Fig. 3D), the partial agonist affinity was calculated by the method of Stephenson[40] using equation 7.
(§5) (7) KDpartialagonist=Y×P/1-YwhereY=A2-A1/A3 where [P] is the concentration of the partial agonist, [A1] is the concentration of the agonist at the point where the fixed partial agonist causes the same response, [A2] is the concentration of agonist causing a given response above that achieved by the partial agonist, and [A3] is the concentration of the agonist, in the presence of the partial agonist, causing the same stimulation as [A2].
where N is the percentage of site 1, [A] is the concentration of agonist, and EC1_50 and EC2_50 are the respective EC50 values for the 2 agonist sites.

[4] = target: T2, human β2-AR (Homo sapiens, UniProt P07550); assay: CRE-SPAP production in CHO-β2-CRE-SPAP cells; type: cell-based; set-up: expressed in transfected cells; host or cells: CHO-K1 clonal line (CHO-β2-CRE-SPAP); settings: for % Isoprenaline: response compared with 10 μM isoprenaline; for EC50 / Log EC50: agonist action; for Log ratio of affinities: cimaterol vs CGP12177 as agonist
Procedure: as §1, §2, §3, §4, §5

[5] = target: T1, β1-AR; assay: 3H-CGP12177 whole-cell binding in CHO-β1-CRE-SPAP cells
[6] = target: T2, human β2-AR; assay: 3H-CGP12177 whole-cell binding in CHO-β2-CRE-SPAP cells; settings: for β2-Selectivity: β2 over β1 affinity from whole-cell binding
[7] = CHO-β1-CRE-luciferase cells, given as log EC50 (negative)
[8] = Log KD (CGP12177 as Agonist), rightward shift of CGP12177 response
[9] = Log KD (Cimaterol as Agonist), rightward shift of cimaterol response, Gaddum, or Stephenson (a)
[10] = Log EC50, agonist action, CHO-β1-CRE-luciferase cells, given as log EC50 (negative)
[11] = CHO-β1-CRE-luciferase cells, Gaddum, or Stephenson for partial agonists (a)
[12] = rightward shift of CGP12177 response
[13] = rightward shift of CGP12177 response, CHO-β1-CRE-SPAP cells
[14] = rightward shift of cimaterol response, CHO-β1-CRE-SPAP cells, Gaddum, or Stephenson (a)

T1 sequence (P08588 whole entry): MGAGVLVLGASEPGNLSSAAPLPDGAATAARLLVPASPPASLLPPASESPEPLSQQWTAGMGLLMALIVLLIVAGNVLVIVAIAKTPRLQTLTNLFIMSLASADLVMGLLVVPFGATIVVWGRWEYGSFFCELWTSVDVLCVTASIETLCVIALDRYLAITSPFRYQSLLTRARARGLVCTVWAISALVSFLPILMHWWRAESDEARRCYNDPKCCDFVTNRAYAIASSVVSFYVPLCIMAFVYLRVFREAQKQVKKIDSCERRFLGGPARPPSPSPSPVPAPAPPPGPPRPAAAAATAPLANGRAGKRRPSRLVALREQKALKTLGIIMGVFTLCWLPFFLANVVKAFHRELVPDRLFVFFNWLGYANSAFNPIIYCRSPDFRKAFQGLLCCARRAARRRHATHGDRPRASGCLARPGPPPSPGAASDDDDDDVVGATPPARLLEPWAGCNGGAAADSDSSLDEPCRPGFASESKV
T2 sequence (P07550 whole entry): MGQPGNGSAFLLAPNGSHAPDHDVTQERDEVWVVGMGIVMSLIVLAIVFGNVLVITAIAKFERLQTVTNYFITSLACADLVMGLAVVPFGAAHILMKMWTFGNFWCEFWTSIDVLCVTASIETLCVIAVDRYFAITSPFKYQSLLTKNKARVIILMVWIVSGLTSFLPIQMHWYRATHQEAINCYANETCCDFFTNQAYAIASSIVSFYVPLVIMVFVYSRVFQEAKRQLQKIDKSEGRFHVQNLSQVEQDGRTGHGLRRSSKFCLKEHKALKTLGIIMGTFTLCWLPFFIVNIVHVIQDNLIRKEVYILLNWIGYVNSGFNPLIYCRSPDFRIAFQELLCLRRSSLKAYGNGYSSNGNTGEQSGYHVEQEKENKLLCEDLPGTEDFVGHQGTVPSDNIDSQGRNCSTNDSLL

Structure (SMILES) | % isop ([1]; CHO-β1-CRE-luciferase cells) | Pharmacological Outcome: CCE/IBS conformation [2] | Pharmacological Outcome: SCE conformation [2] | % Isoprenaline ([3]; CHO-β1-CRE-SPAP cells) | % Isoprenaline [4] [%] | Kd [5] [nM] | Kd [6] [nM] | β2-Selectivity [6] [fold] | EC50 [4] [nM] | EC50 ([3]; CHO-β1-CRE-SPAP cells) [nM] | Log EC50 [1, 7] | Kd [4, 9] [nM] | Log EC50 [4] | Evidence of SCE activation [2] | Log EC50 ([3]; CHO-β1-CRE-SPAP cells) | Log KD Secondary Conformation, CGP12177 as agonist [1, 11] | also measured
C=CCc1ccccc1OCC(O)CNC(C)C (racemic) [Alprenolol, (RS)-1-(2-allylphenoxy)-3-(isopropylamino)propan-2-ol, reference compound] | 3.2 ± 0.8% | Agonist (biphasic) | Agonist (biphasic) | 56.7 ± 3.7% | – | – | – | – | – | – | – | – | – | – | – | – | % at EC501 ([3]; % of the response occurring via first component, CHO-β1-CRE-SPAP cells): 62.5 ± 2.7%
C=CCOc1ccccc1OCC(O)CNC(C)C (racemic) [Oxprenolol, (RS)-1-[2-(allyloxy)phenoxy]-3-(isopropylamino)propan-2-ol, reference compound] | – | Agonist (biphasic) | Agonist (biphasic) | – | 40.1 ± 2.3 | – | – | – | – | – | – | – | – | – | – | – | –
CC(C)NCC(O)COc1cccc2[nH]ccc12 (racemic) [Pindolol, (RS)-1-[(1H -indol-4-yl)oxy]-3-(isopropylamino)propan-2-ol, reference compound] | 11.7 ± 1.4% | Agonist (biphasic) | Agonist (biphasic) | – | – | – | – | – | – | – | – | – | – | – | – | – | –
CC(C)(Cc1c[nH]c2ccccc12)NCC(O)COc1ccccc1C#N (stereo not drawn) [Bucindolol, 2-[2-hydroxy-3-[[2-(1H -indol-3-yl)-1,1-dimethyl-ethyl]amino]propoxy]benzonitrile, reference compound] | 23.7 ± 1.7% | Agonist (biphasic) | Agonist (biphasic) | 84.5 ± 2.4% | 70.3 ± 2.0 | 0.575 | 0.0513 | 11.2 | 0.2 | 0.759 | – | – | – | – | – | – | % at EC501 ([1]; % of the response occurring via first component, CHO-β1-CRE-luciferase cells): 23.3 ± 2.4%; EC50 ([1]; EC501 (log EC50 of first component), biphasic concentration response, CHO-β1-CRE-luciferase cells): 0.537 nM; EC50 ([1]; EC502 (log EC50 of second component), biphasic concentration response, CHO-β1-CRE-luciferase cells): 57.5 nM

Second part, led by results:

% isop ([1]; CHO-β1-CRE-luciferase cells) | Pharmacological Outcome: CCE/IBS conformation [2] | Pharmacological Outcome: SCE conformation [2] | % Isoprenaline ([3]; CHO-β1-CRE-SPAP cells) | % Isoprenaline [4] [%] | Kd [5] [nM] | Kd [6] [nM] | β2-Selectivity [6] [fold] | EC50 [4] [nM] | EC50 ([3]; CHO-β1-CRE-SPAP cells) [nM] | Log EC50 [1, 7] | Kd [4, 9] [nM] | Log EC50 [4] | Evidence of SCE activation [2] | Log EC50 ([3]; CHO-β1-CRE-SPAP cells) | Log KD Secondary Conformation, CGP12177 as agonist [1, 11] | Structure (SMILES) | also measured
– | High-affinity neutral antagonist | Low-affinity neutral antagonist | – | – | 5.13 | – | – | – | – | No response | 0.0468 | No response | None | No response | – | CC(C)(C)NC[C@H](O)COc1cccc2c1CCCC2=O [VL03, 5-[(2S)-3-(tert-butylamino)-2-hydroxypropoxy]-3,4-dihydro-2H -naphthalen-1-one] | Schild slope ([4]; CGP12177 as agonist): 1.00 ± 0.03; Kd [4, 8]: 0.0759 nM; Schild slope ([4]; cimaterol as agonist): 0.99 ± 0.04; Kd ([3]; Log KD Catecholamine conformation Cimaterol as Agonist, rightward shift of cimaterol response, CHO-β1-CRE-SPAP cells, Gaddum, or Stephenson (a)): 1.78 nM; Kd ([3]; Log KD Secondary Conformation CGP12177 as Agonist, rightward shift of CGP12177 response, CHO-β1-CRE-SPAP cells): 562 nM; Schild slope ([3]; cimaterol as agonist, CHO-β1-CRE-SPAP cells): 0.96 ± 0.05
– | – | – | – | 55.1 ± 2.7 | – | – | – | – | – | – | – | – | – | – | – | CC(C)(C)NC[C@@H](O)COc1cccc2c1CCC(=O)N2 [VL04, 5-[(2R)-3-(tert-butylamino)-2-hydroxypropoxy]-3,4-dihydro-1H -quinolin-2-one] | –
9.7 ± 0.8% | Agonist | – | 62.3 ± 3.8% | 63.2 ± 3.2 | 24 | 12.3 | 1.9 | 3.8 | 5.01 | – | – | – | None | – | No shift 10 μM | COc1ccccc1OC[C@@H](O)CNC(C)C [VL05, (2S)-1-(2-methoxyphenoxy)-3-(propan-2-ylamino)propan-2-ol] | Kd [1]: 10 nM; EC50 [1, 10]: 64.6 nM; Log ratio of affinities ([1]; CHO-β1-CRE-luciferase cells): >3
2.7 ± 0.8% | Agonist | – | 53.6 ± 3.1% | 15.2 ± 1.2 | 1120 | 977 | 1.1 | 363 | 339 | – | 457 | – | None | – | No shift 10 μM | COc1ccc(OCC(O)CNCCc2c[nH]c3ccccc23)cc1 (stereo not drawn) [VL06, 1-[2-(1H -indol-3-yl)ethylamino]-3-(4-methoxyphenoxy)propan-2-ol] | Kd [1]: 347 nM; EC50 [1, 10]: 1410 nM; Log ratio of affinities ([1]; CHO-β1-CRE-luciferase cells): >1.46; Kd [4, 8]: 1170 nM; Log ratio of affinities [4]: 0.41
– | No receptor interaction | No receptor interaction | – | – | – | 3240 | – | – | – | No response | 2090 | No response | None | No response | No shift 10 μM | Cc1cc(C)c(OC[C@@H](O)CNC(C)C)c(C)c1 [VL08, (2S)-1-(propan-2-ylamino)-3-(2,4,6-trimethylphenoxy)propan-2-ol] | Log KD (CGP12177 as Agonist) [4, 12]: No shift 10 μM; Log KD Secondary Conformation, CGP12177 as agonist [3, 13]: No shift 10 μM; Log KD Catecholamine conformation Cimaterol as Agonist [3, 14]: No shift 10 μM
14% and 13.8 ± 1.5% | Agonist | – | 67% and 66.9 ± 2.5% | 28.7 ± 2.0 | 186 | 89.1 | 2.1 | 39.8 | 18.6 | – | 37.2 | – | None | – | – | O[C@H](CNCCc1c[nH]c2ccccc12)COc1ccc(F)cc1 [VL10, (2R)-1-(4-fluorophenoxy)-3-[2-(1H -indol-3-yl)ethylamino]propan-2-ol] | EC50 [1, 10]: 155 nM; Log ratio of affinities ([1]; CHO-β1-CRE-luciferase cells): 1.64; Kd [4, 8]: 138 nM; Log ratio of affinities [4]: 0.57; Kd [3]: 117 nM
– | No receptor interaction | No receptor interaction | – | – | – | 8910 | – | – | – | No response | – | No response | None | No response | No shift 10 μM | OCCOc1ccc(CNCCc2c[nH]c3ccccc23)cc1 [VL11, 2-[4-[[2-(1H -indol-3-yl)ethylamino]methyl]phenoxy]ethanol] | Log KD (CGP12177 as Agonist) [4, 12]: No shift 10 μM; Log KD (Cimaterol as Agonist) ([4]; rightward shift of cimaterol response, Gaddum, or Stephenson (a)): No shift 10 μM; Log KD Secondary Conformation, CGP12177 as agonist [3, 13]: No shift 10 μM; Log KD Catecholamine conformation Cimaterol as Agonist [3, 14]: No shift 10 μM
– | No receptor interaction | No receptor interaction | – | – | – | 6760 | – | – | – | No response | 3720 | No response | None | No response | No shift 10 μM | C=CCc1ccccc1OCCNCCCOC [VL12, 3-methoxy-N -[2-(2-prop-2-enylphenoxy)ethyl]propan-1-amine] | Log KD Catecholamine conformation Cimaterol as Agonist ([1]; rightward shift of cimaterol response, CHO-β1-CRE-luciferase cells, Gaddum, or Stephenson for partial agonists (a)): No shift at 10 μM; Log KD (CGP12177 as Agonist) [4, 12]: No shift 10 μM; Log KD Secondary Conformation, CGP12177 as agonist [3, 13]: No shift 10 μM; Log KD Catecholamine conformation Cimaterol as Agonist [3, 14]: No shift 10 μM
